# Measured values published in patent publication US20230356105A1, “TETRAAZADODECANE BASED CHELATING AGENTS FOR SEPARATION OF RARE EARTH ELEMENTS AND METHOD THEREFOR” (Ustav Organicke Chemie a Biochemie AV CR V.V.I., priority 2020, published 2023).
# Where “and” joins values, the source holds several entries; their conditions need not be identical. Equal entries are not always repeated. Marks after values point to notes of the source that are not given here.
# Assays:
# Format in all cases: physicochemical
# [1] = Separation of Pr from L5 by C18 column (Example 28)
# Description: Stock solutions were pipetted into a 20 mL glass vial to prepare a reaction mixture as follows: • 1. 1.00 mL 100 mM aqueous solution of PrCl3 • 2. 0.60 mL 218 mM aqueous solution of L5
# NaOH (2 M aqueous stock solution) was added by micropipette to titrate the reaction pH to 6. This reaction was stirred by the use of a PTFE-coated stir bar on a magnetic stirrer at room temperature for 30 minutes. The resulting suspension was transferred into two 2 mL plastic Eppendorf centrifuge tubes and centrifuged. The supernatant was set aside and analysed by HPLC, and the precipitate was dissolved by addition of 0.15 mL 1 M HCl to each Eppendorf tube. These dissolved solutions were combined and titrated to pH 2 by addition of 2 M NaOH.
# The L5 and Pr present in the acidic solution were separated by reverse-phase chromatography, using 1.01 g fully-endcapped C18 silica gel in a plastic SPE cartridge (2 cm diameter). After conditioning the reversed phase with MeCN and MeCN/H20 solutions, 1 mL of H2O was run through the column before loading the L5-Pr solution onto the column. MeCN/H20 solutions were used to elute the components from the column: 2 mL 0% MeCN, 4 mL 10% MeCN, 4 mL 25% MeCN, and 4 mL 50% MeCN. The eluted solutions were collected as seven 2 mL fractions. All fractions were analysed by HPLC-MS to determine L5 content. The first two fractions were also analysed by ICP-OES to determine Pr content.
# The distribution of L5 and Pr in the fractions is shown in Table 21, where the quantity of each component present in each fraction is provided as a fraction of the total quantity of the component found in the sum of the fractions, as well as the measured content of Pr (in mM) and L5 (as the integrations of the chromatographic peak areas at 280 nm) found in each fraction.
# [2] = Separation of Nd/Pr/Tb/Dy mixture by precipitation using L5 (Example 21); conditions: for precipitate after 20 hrs: dissolved to 500 μL; for precipitate after 20 hrs composition / solution after 20 hrs composition: percent molar
# Description: Stock solutions were pipetted into 4 mL glass vials to prepare reaction mixtures with concentrations as follows: • 1. 38.5 mM (1.1 eq) chelator L5 • 2. 35 mM (1 eq) total LnCl3 content (from a stock solution containing a mixture of Ln=Nd, Pr, Tb, and Dy, in a ratio of 3.3:1:1:1, Nd:Pr:Tb:Dy) • 3. 1750 mM (50 eq) MOPS pH=7
# The total reaction volume was 3.2 mL. A PTFE-coated stir bar was added to this vial, and the vial was capped and stirred with the temperature maintained at 40° C. by use of an aluminium heating block on a magnetic stirrer. After 20 hours, a 500 μL aliquot of the reaction mixture was taken from the vial. This was centrifuged in a 2 mL plastic Eppendorf centrifuge vial, and the supernatant was carefully pipetted from this and transferred to a new set of tubes. The precipitate was dissolved by addition of 500 μL 1 M HCl, and the absolute concentration of Nd, Pr, Tb, and Dy in both the supernatants and precipitates was determined by ICP-OES.
# The percent molar composition of each phase is also provided, showing the minimal selectivity in precipitation under these conditions.
# [3] = Separation of Eu/Yb mixture by precipitation from water/acetonitrile solutions using L5 (Example 17); conditions: for Precipitate concentration [mM] Eu / Precipitate concentration [mM] Yb: dissolved to 100 μL
# Description: 3 reaction mixtures, differing in acetonitrile content (group A=10%, group B=20%, group C=50%) were prepared in plastic round-bottom 2 mL Eppendorf tubes, each in duplicate. For group A, the stock solutions were pipetted as follows: 5 μL 100 mM aqueous solution of EuCl3; 5 μL 100 mM aqueous solution YbC13; 10 μL 100 mM aqueous solution of compound L5; 20 μL 3 M MOPS buffer pH=7; 50 μL water; 10 μL acetonitrile.
# For group B, the stock solutions were pipetted as follows: 5 μL 100 mM aqueous solution of EuCl3; 5 μL 100 mM aqueous solution YbC13; 10 μL 100 mM aqueous solution of compound L5; 20 μL 3 M MOPS buffer pH=7; 40 μL water; 20 μL acetonitrile. For group C, the stock solutions were pipetted as follows: 5 μL 100 mM aqueous solution of EuCl3; 5 μL 100 mM aqueous solution YbC13; 10 μL 100 mM aqueous solution of compound L5; 20 μL 3 M MOPS buffer pH=7; 10 μL water; 50 μL acetonitrile.
# Each tube was equipped with one PTFE-coated magnetic stir bar and sealed, and the mixture was stirred on a magnetic stirrer for 24 hours at room temperature. The tubes were then centrifuged and the supernatants were carefully pipetted out and transferred to a new set of tubes. To the precipitate was added 100 μL 1 M HCl and mixture was stirred until full dissolution (overnight at room temperature, pH=0). Concentrations of Eu and Yb in the supernatants and in the re-dissolved precipitates were determined by ICP-OES. The resulting absolute concentrations of both metals in the supernatants and precipitates, as well as calculated values of the separation factor Yb/Eu according to the formula from Example 11), are summarized in Table 11.
# [4] = group A, 10% acetonitrile, mean of duplicates
# [5] = group B, 20% acetonitrile, mean of duplicates
# [6] = group C, 50% acetonitrile, mean of duplicates
smiles,measurement,setting,value
"O=C(O)CN1CCN(CC(=O)O)CCN(Cc2cccc3ccccc23)CCN(CC(=O)O)CC1 [L5, 2,2′,2″-(10-(naphthalene-1-ylmethyl)-1,4,7,10-tetraazacyklododekane-1,4,7-triyl)triacetic acid]",% distribution in fractions L5,[1]; fraction 1 (0% MeCN),0.0%
same,% distribution in fractions Pr,[1]; fraction 1 (0% MeCN),87%
same,measured content of fraction L5 peak area (280 nm),[1]; fraction 1 (0% MeCN),0 AU
same,measured content of fraction Pr,[1]; fraction 1 (0% MeCN),18.95 mM
same,% distribution in fractions L5,[1]; fraction 2 (10% MeCN),0.1%
same,% distribution in fractions Pr,[1]; fraction 2 (10% MeCN),13%
same,measured content of fraction L5 peak area (280 nm),[1]; fraction 2 (10% MeCN),3 AU
same,measured content of fraction Pr,[1]; fraction 2 (10% MeCN),2.82 mM
same,% distribution in fractions L5,[1]; fraction 3 (10% MeCN),56.8%
same,measured content of fraction L5 peak area (280 nm),[1]; fraction 3 (10% MeCN),2258 AU
same,% distribution in fractions L5,[1]; fraction 4 (25% MeCN),34.8%
same,measured content of fraction L5 peak area (280 nm),[1]; fraction 4 (25% MeCN),1382 AU
same,% distribution in fractions L5,[1]; fraction 5 (25% MeCN),8.1%
same,measured content of fraction L5 peak area (280 nm),[1]; fraction 5 (25% MeCN),324 AU
same,% distribution in fractions L5,[1]; fraction 6 (50% MeCN),0.1%
same,measured content of fraction L5 peak area (280 nm),[1]; fraction 6 (50% MeCN),5 AU
same,% distribution in fractions L5,[1]; fraction 7 (50% MeCN),0.1%
same,measured content of fraction L5 peak area (280 nm),[1]; fraction 7 (50% MeCN),3 AU
same,solution after 20 hrs,[2]; Ln=Dy,0.58 mM
same,precipitate after 20 hrs,[2]; Ln=Dy,4.69 mM
same,precipitate after 20 hrs composition,[2]; Ln=Dy,14.9%
same,solution after 20 hrs composition,[2]; Ln=Dy,17.1%
same,solution after 20 hrs,[2]; Ln=Nd,1.85 mM
same,precipitate after 20 hrs,[2]; Ln=Nd,16.68 mM
same,precipitate after 20 hrs composition,[2]; Ln=Nd,53.0%
same,solution after 20 hrs composition,[2]; Ln=Nd,54.3%
same,solution after 20 hrs,[2]; Ln=Pr,0.47 mM
same,precipitate after 20 hrs,[2]; Ln=Pr,4.85 mM
same,precipitate after 20 hrs composition,[2]; Ln=Pr,15.4%
same,solution after 20 hrs composition,[2]; Ln=Pr,13.9%
same,solution after 20 hrs,[2]; Ln=Tb,0.50 mM
same,precipitate after 20 hrs,[2]; Ln=Tb,5.28 mM
same,precipitate after 20 hrs composition,[2]; Ln=Tb,16.8%
same,solution after 20 hrs composition,[2]; Ln=Tb,14.7%
same,Supernatant concentration [mM] Eu,"[3]; group A, 10% acetonitrile",0.58 mM and 0.35 mM
same,Supernatant concentration [mM] Yb,"[3]; group A, 10% acetonitrile",4.55 mM and 4.42 mM
same,Precipitate concentration [mM] Eu,"[3]; group A, 10% acetonitrile",2.78 mM and 2.98 mM
same,Precipitate concentration [mM] Yb,"[3]; group A, 10% acetonitrile",0.29 mM and 0.36 mM
same,Precipitate concentration [mM] Eu,[3]; [4],2.88 mM
same,Precipitate concentration [mM] Yb,[3]; [4],0.32 mM
same,Supernatant concentration [mM] Eu,[3]; [4],0.47 mM
same,Supernatant concentration [mM] Yb,[3]; [4],4.48 mM
same,Supernatant concentration [mM] Eu,"[3]; group B, 20% acetonitrile",0.45 mM and 0.63 mM
same,Supernatant concentration [mM] Yb,"[3]; group B, 20% acetonitrile",3.99 mM and 4.71 mM
same,Precipitate concentration [mM] Eu,"[3]; group B, 20% acetonitrile",3.16 mM and 2.95 mM
same,Precipitate concentration [mM] Yb,"[3]; group B, 20% acetonitrile",0.38 mM and 0.41 mM
same,Precipitate concentration [mM] Eu,[3]; [5],3.06 mM
same,Precipitate concentration [mM] Yb,[3]; [5],0.40 mM
same,Supernatant concentration [mM] Eu,[3]; [5],0.54 mM
same,Supernatant concentration [mM] Yb,[3]; [5],4.35 mM
same,Supernatant concentration [mM] Eu,"[3]; group C, 50% acetonitrile",1.51** mM and 0.79** mM
same,Supernatant concentration [mM] Yb,"[3]; group C, 50% acetonitrile",6.29** mM and 5.77** mM
same,Precipitate concentration [mM] Eu,"[3]; group C, 50% acetonitrile",3.22 mM and 3.90 mM
same,Precipitate concentration [mM] Yb,"[3]; group C, 50% acetonitrile",0.42 mM and 0.37 mM
same,Precipitate concentration [mM] Eu,[3]; [6],3.56 mM
same,Precipitate concentration [mM] Yb,[3]; [6],0.39 mM
same,Supernatant concentration [mM] Eu,[3]; [6],1.15 mM
same,Supernatant concentration [mM] Yb,[3]; [6],6.03 mM
